Source: patent US4080466A, “Pharmaceutical compositions containing 4-hydroxyl-1,3-dithiolan-2-ylidene malonates” (Nihon Nohyaku Co., Ltd., priority 1976, dated 1978)

Legend:
[1] = tested on: fatty liver induced by ethionine; assay: Effect on Fatty Liver (ethionine); format: in vivo, mouse (dd-strain); conditions: 250 mg/kg oral, 24 h, 10 animals
Excerpt: But, the fatty liver is grouped into a couple of patterns from the mechanism of lipid accumulation or metabolism of lipoprotein in the liver. Ethionine is a typical example which induces first pattern of fatty liver. It inhibits RNA and protein synthesis and destructs polysome of the liver cell. Fatty liver is induced by inhibition of the protein synthesis and disturbance of lipoprotein secretion.
Usually, fatty liver is closely related to the accumulation of triglyceride in the liver. In the present example, the degree of fatty liver and protective or therapeutic effect against the fatty liver was evaluated by measurement of triglyceride content in the liver. Methods:
The compounds of this invention and methionine were independently dissolved or suspended into olive oil and administered orally to 4 week-old male mouse (dd-strain) at the dose of 250 mg/kg. One hour before it, simultaneously to it, or one hour after it, ethionine dissolved in equimolar NaOH solution was administered intraperitoneally at the dose of 200 mg/kg. Twenty four hours after the administration of ethionine, the animals were sacrificed and triglyceride content in the liver was determined by chromotropic acid method.

[2] = tested on: acute liver damage induced by allyl alcohol; assay: Protective Effect on Acute Liver Damage associated with Periportal Necrosis (allyl alcohol), BSP test; format: in vivo, mouse (dd-strain); conditions: 100 mg/kg oral, 6 h before allyl alcohol (0.075 mg/kg oral); 24 h
Description: The compund of this invention or anethol trithion was orally administered to the male mouse (4 week-old, dd-strain) at the dose of 100 mg/kg. Six hours after it, allyl alcohol was orally administered at the dose of 0.075 mg/kg. Twenty four hours after it, the animals were sacrificed to collect blood samples.

[3] = tested on: acute hepatitis induced by D-galactosamine; assay: Protective Effect on Acute Hepatitis associated with Mesenchymal Reaction and Discrete Lobular Necrosis (D-galactosamine); format: in vivo, rat (SD strain); conditions: 100 mg/kg oral, 6 h before D-galactosamine 600 mg/kg i.p. (+ 300 mg/kg)
Description: D-Galactosamine is a compound which induces a discrete lobular necrosis associated with mesenchymal reaction similar to the change observed in human viral hepatitis, so that it is frequently used in producing a model for viral hepatitis.
The compound of this invention or anethol trithion was administered orally to the male rat (SD strain) at the dose of 100 mg/kg. Six hours after it, D-galactosamine was intraperitoneally administered at the dose of 600 mg/kg. Four hours after it, an additional 300 mg/kg was administered intraperitoneally. Eight hours after it, the animals were sacrificed to collect the blood samples. P-GPT activity and triglyceride in the liver were measured to evaluate the effect of the compound of this invention.

acute oral toxicity = conditions: mouse, in vivo, male mice
Excerpt: Further, these compounds have no detrimental effects on test animals administered therewith, so far as the doses thereof are within an ordinary administration range.

glucose metabolism [4] = assay: Effect on glucose metabolism; format: in vivo, mice; conditions: 250 mg/kg oral, 6 h before glucose 4.0 g/kg; 0 min
glucose metabolism [5] = assay: Effect on glucose metabolism; format: in vivo, mice; conditions: 250 mg/kg oral, 6 h before glucose 4.0 g/kg
Description: The test compounds dissolved in olive oil and administered orally at the dose of 250 mg/kg to the mice. After 6 hours, 4.0 g/kg of glucose was orally administered. The same amount of glucose was given to the control animals. 0.02 ml of blood was taken from caudal vein of the mice at 30, 60, 90 and 120 min. after glucose administration. Blood sugar was measured by the procedure of Somogyi-Nelson. Number of animals used was 5 to 6 mice for each treatment.

[6] = compound 1 hr before ethionine (200 mg/kg i.p.)
[7] = simultaneous with ethionine (0 hr)

## CCOC(=O)C(C(=O)OC(C)C)=C1SCC(O)S1 (stereo not drawn) [Compound 4, Ethyl isopropyl 4-hydroxy-1,3-dithiolan-2-ylidene malonate]
[1]; compound 1 hr after ethionine
  Triglyceride: 12.8 ± 0.92 mg/g-liver
[1]; [6]
  Triglyceride: 12.0 ± 0.77 mg/g-liver
[1]; [7]
  Triglyceride: 6.7 ± 0.43 mg/g-liver

## CC(C)OC(=O)C(C(=O)OC(C)C)=C1SCC(O)S1 (stereo not drawn) [Compound 2, Diisopropyl 4-hydroxy-1,3-dithiolan-2-ylidene malonate]
[2]
  BSP (residual quantity): 17.1 ± 3.8
[1]; compound 1 hr after ethionine
  Triglyceride: 11.8 ± 0.39 mg/g-liver
[1]; [6]
  Triglyceride: 10.3 ± 0.96 mg/g-liver
[1]; [7]
  Triglyceride: 6.9 ± 0.38 mg/g-liver
[3]
  Triglyceride in liver: 7.0 ± 0.82 mg/g
  p-GPT: 73 ± 13 Karmen unit
Acute oral toxicity
  LD50: > 6590 mg/kg
Glucose metabolism [4]
  Blood Sugar: 136 ± 12.3 mg/dL
Glucose metabolism [5]; 30 min
  Blood Sugar: 247 ± 20.2 mg/dL
Glucose metabolism [5]; 60 min
  Blood Sugar: 212 ± 13.1 mg/dL
Glucose metabolism [5]; 90 min
  Blood Sugar: 177 ± 15.5 mg/dL
Glucose metabolism [5]; 120 min
  Blood Sugar: 130 ± 10.8 mg/dL
